“And” between values parts separate entries of the source, which are not always exact repeats. Equal entries are not always repeated. “Also recorded” adds a separate entry of the source.
Columns and labels:
c-Src [1] = molecular target: T1, c-Src (Homo sapiens, UniProt P12931); experiment: HPLC and LC/MS analysis of phosphorylation of the compound by c-Src; type: biochemical
Protocol: (§1) To confirm this, compounds were tested with an NADH-based, coupled enzyme assay that also detects ADP generation. […] This additionally supported that the ADP-Glo activity observed was due to activation of ATP hydrolysis and not phosphotransfer to these compounds.
(a) on-DNA binding affinity to c-Src measured by fluorescence polarization in the presence of ATP (100 µM). […] Peak identity was verified by LC/MS analysis (Figure S9). […]
Kina se R e a c t ion w it h 1µM Src
Figure S7. HPLC Analysis of LYNtide Phosphorylation. The kinase reaction was performed by incubating 200 µM LYNtide with Src in 1x kinase buffer (as outlined in section 4.6 NADH coupled assay, […]
with 1mM ATP) for 30 min. […] Peak […]
identities were verified by LC/MS. The peak at 19 minutes is an impurity in the LYNtide alkyne preparation, which was also phosphorylated. […]
[M+H ]+ cal cd. […] O OH […]
Figure S9. LC/MS analysis of SrcDEL10 Phosphorylation. […]
µM ATP and 0.3 µM c-Src at 30 C for 16 hours. […]
and 10 µM c-Src at 30 C for 16 hours. […]

c-Src [2] = molecular target: T1, c-Src; experiment: radiolabel (32P-ATP) inhibition assay of LYNtide phosphorylation by c-Src; type: biochemical; details: 32P-ATP 50 µM, biotinylated-LYNtide 50 µM
Protocol: The original six off-DNA hits were tested for inhibition of c-Src activity. For these tests, we used ^32P-ATP as a substrate and detected phosphorylation levels of a biotinylated-LYNtide substrate after adsorption to streptavidin coated membranes. This assay should not be affected by activation of ATP hydrolysis or phosphotransfer to the small molecules. […] There was no apparent correlation of these values to the Km or kcat values in the prior assays as substrates.
Each hit molecule was preincubated with 1.2 nM c-Src at 30 °C for 30 min. The kinase reaction was initiated with the addition of 50 μM LYNtide and 50 μM ATP with 0.15 μCi gamma ^32P ATP at 30 °C for 10 min. The kinase reaction samples (2 µL) were spotted on P81 filter paper consisting of 1.5 cm squares. After air dry, the P81 papers were washed 4 times with 0.5% phosphoric acid for 5 min each. The P81 papers were washed one time with acetone for 5 min. The papers were then allowed to air dry for about 20 min. The dried P81 papers were analyzed by liquid scintillation counter.
Figure 6 Inhibition of hit molecules in a radiolabel assay with ^32P-ATP (50 µM) and biotinylated-LYNtide (50 µM) as substrates.

Src = Src (Homo sapiens, UniProt P12931); experiment: HPLC-assessed inhibition of LYNtide phosphorylation; type: biochemical
Protocol: Kina se R e a c t ion w it h 1 0 nM Sr c
KR with LynT ide N-Alkyne (50uM)
Kina se R e a c t ion w it h 1 0 nM Sr c + Sr c D E L 1 0
300 ~ 25% phosphorylation
KR with LynT ide N-Alkyne (50uM) + Cmpd 10 (100uM)
Figure S11. […] The kinase reaction
30 min, if applicable) in 1x kinase buffer (as outlined in 4.6 NADH coupled assay, with 1mM ATP) for 30

[3] = system: STAT3 phosphorylation in NME cells; experiment: cell signaling immunoblot, EGF-stimulated STAT3 phosphorylation (Src-dependent); type: cell-based, murine; details: 100 µM prior to EGF (50 ng/mL, 30 min)
From the text: Epidermal growth factor (EGF) stimulation of NME cells leads to STAT3 phosphorylation via a Src-dependent process. […] The broad specificity Src family inhibitor, PP2, was used as a positive control. Importantly, phosphorylation of ERK1/2, which occurs via a Src independent pathway, was not reduced. Similarly, autophosphorylation of EGFR at Y1068 was not affected.
NME cells were constructed via stable overexpression of EGFR in normal murine mammary gland (NMuMG) cells as previously described. These cells were cultured in DMEM containing 10% FBS, 10 μg/mL insulin, penicillin, and streptomycin. For cell signaling assays, cells were plated for 24 h prior to removal of the FBS for an additional 24 h. During this serum starvation, PP2 (Sigma, 529576) or SrcDEL10-ester were added as indicated, and cells were subsequently stimulated with EGF (50 ng/mL) (Goldbio, 1150-04) for 30 min. […] Differential binding of these antibodies was detected using their appropriate secondary antibodies.
NME cells were serum deprived for 24 h in the presence of vehicle control (DMSO), Src family inhibitor PP2 (10 µM), or SrcDEL10-ester (100 µM) for the indicated amounts of time. […] Equal protein aliquots were analyzed by immunoblot with the indicated antibodies. […]

c-Src [4] = molecular target: T1, c-Src; experiment: on-DNA binding affinity to c-Src by fluorescence polarization in the presence of ATP; details: ligand linked to 20-mer oligo hybridized to FAM oligo; ATP 100 µM; read-out: binding constant (Kd)
Protocol: These studies used the HPLC-purified ligand linked to 20-mer oligos, which were prepared for the prior qPCR validations under crude conditions. This construct was hybridized to a fluorescein-containing complementary oligo, and binding constants were determined by changes observed in fluorescence polarization, as previously described.
(a) on-DNA binding affinity to c-Src measured by fluorescence polarization in the presence of ATP (100 µM). […] Peak identity was verified by LC/MS analysis (Figure S9).

c-Src [5] = molecular target: T1, c-Src; experiment: substrate-mediated selection of DNA conjugates (c-Src treatment, anti-phosphotyrosine pulldown), enrichment by qPCR; type: biochemical; details: purified DNA conjugates, with kinase treatment
Protocol: To mimic library selection conditions, a DNA-LYNtide construct was mixed with a control construct at a ratio of 1 to 500. This mixture was treated at 50 nM total DNA concentration with Src kinase and the selection was applied. We observed robust enrichment (2600-fold) and recovery (9%) of the LYNtide construct by qPCR (Figure S3).
We then questioned if SrcDEL10 was indeed selected from the library based on the ability to serve as a Src substrate and accept a phosphate.
For optimization of substrate-based selection, two unique 180-mer constructs were prepared by PCR, as previously described. Each contained two unique 20-mer sequences for specific amplification and detection in qPCR. One was prepared with an unmodified forward primer as a control. The other was prepared using a LYNtide 20-mer oligo conjugate as a primer.
Kinase reaction was performed as follows 1x kinase buffer (25 mM Tris-HCl (pH 7.5), 2 mM dithiothreitol (DTT), 0.1 mM Na3VO4, 10 mM MgCl2), 1 mM ATP, different concentrations (1 μM to 100 μM) of substrates (either off DNA or on DNA hit molecules), and 12 nM rSrc by incubation for 2 h at 30 °C. After that, distinct 55mers were annealed to each kinase reaction, as previously described. […]
Figure S3. […] In a model enrichment assay, enrichment for tyrosine kinase substrates was detected by qPCR of model 180-mer constructs. […]

c-Src [6] = molecular target: T1, c-Src; experiment: NADH-based coupled enzyme assay detecting ADP generation; type: biochemical; details: 1 mM ATP, 100 µM compound, 12 nM Src, 30 °C, 3 h
Protocol: as §1
Kinase reaction was performed as follows 1x kinase buffer (25 mM Tris-HCl (pH 7.5), 2 mM dithiothreitol (DTT), 0.1 mM Na3VO4, 10 mM MgCl2), 1 mM ATP, 100 μM peptides and 12 nM Src at 30 °C for 3 h. The kinase reaction mixture was incubated with 30 unit/mL lactic dehydrogenase (LDH), 20 unit/mL pyruvate kinase (PK), 2 mM phosphoenolpyruvate (PEP), and 1 mM NADH. The absorbance of NADH was monitored at 340 nm.
Figure S8. NADH Coupled Assay of Hit Molecules with c-Src. Samples were composed of 1 mM ATP,
100 µM putative substrate molecules, and 12 nM c-Src kinase at 30 C for 3 hours. Full method description
is provided in Methods and Materials 4.6 NADH assay.

c-Src [7] = details: LYNtide kinetic parameters for Src; cited from earlier work
c-Src [8] = molecular target: T1, c-Src; experiment: ADP-Glo assay of compounds as c-Src substrates (ADP production); type: biochemical
Protocol: Hit molecules were initially characterized as substrates for c-Src using the luciferase-based ADP-Glo assay (Promega). All six molecules appeared to be efficient substrates for Src kinase.
Kinase reaction was performed as follows 1x kinase buffer (25 mM Tris-HCl (pH 7.5), 2 mM dithiothreitol (DTT), 0.1 mM Na3VO4, 10 mM MgCl2), 1 mM ATP, different concentrations (1 μM to 100 μM) of substrates (either off DNA or on DNA hit molecules), and 12 nM rSrc by incubation for 2 h at 30 °C. After that, distinct 55mers were annealed to each kinase reaction, as previously described. The annealed reactions were incubated with anti Pho-Tyr loaded protein G magnetic bead at RT for 30 min. After washing by three times 20 μL 1xPBST with 1 mg/mL BSA, 1 mg/mL tRNAs), the captured samples were eluted by 20 μL of 1 mM phenylphosphate. The resulting supernatant was then used as a template in qPCR.
After the kinase reaction was performed as previous section, the reaction mixture (5 μL) was incubated with 5 µL of ADP-Glo™ reagent at RT for 40 min and then add 10 µL of kinase detection reagent at RT for 1 h. The luminescence was measure by plate reader.

[9] = Table S3, ADP-Glo assay of SrcDEL10 derivatives, enzyme Src

For NC(=O)CN(CCc1ccc(O)cc1)C(=O)[C@H](CC(=O)O)NC(=O)c1ccc(CN(CC2CC2)C(=O)CCO)cc1 [SrcDEL10], the “SrcDEL10-phos. fraction by LC/MS” value (c-Src [1]; SrcDEL10 100 µM, 100 µM ATP, 10 µM c-Src, 30 C, 16 hours (Figure S9b)) was 54%, the phosphorylated compound formed (c-Src [1]; enzyme 1 µM, SrcDEL10 200 µM, ATP 1 mM, HPLC, LC/MS) was ~ 1% and the IC50 (c-Src [2]) was 48 µM. The inhibition at 100 µM (Src) was about 50%, the “LYNtide phosphorylation in presence of compound” value (Src; 100 µM SrcDEL10, 50 µM LYNtide, 10 nM Src, 50% without compound) was ~ 25% and the “STAT3 phosphorylation levels after EGF stimulation” value [3] was “No reduction”. The Kd (c-Src [4]) was 7.5 µM.

For “DEDIYGVLP [LYNtide, optimal peptide substrate for Lyn tyrosine kinase, a Src family kinase, reference compound]”, the “extent of phosphorylation” value (c-Src [1]; 1 µM c-Src, 200 µM LYNtide, 1 mM ATP, 30 min) was “full phosphorylation; also recorded: fully phosphorylated”, the “enrichment in qPCR selection assay” value (c-Src [5]) was 10,000 fold and the “ADP generation relative to compound” value (c-Src [6]) was “approximately one equivalent”. The Km (c-Src [7]) was 18 µM, the kcat (c-Src [7]) was 2.0 s⁻¹ and the kcat (c-Src [8]; ADP-Glo assay) was 6.5 s⁻¹. The Km (c-Src [8]; ADP-Glo assay, compound as substrate of c-Src) was 5 µM and 5.2 µM, the Km (c-Src [8]; [9]) was 5.23 µM and the Vmax (c-Src [8]; [9]) was 1.17 µM/min. For the same compound, the kcat (c-Src [8]; [9]) was 6.47 s⁻¹.

Reference: PMC6695731, “Application of a Substrate-Mediated Selection with c-Src Tyrosine Kinase to a DNA-Encoded Chemical Library” (Molecules, 2019)
